According to ChEMBL document CHEMBL3301458, “MMV Malaria Box hERG screening”:
The source made the active and inactive calls. How the calls were made is not given here.

Legend:
hERG (Kv11.1, KCNH2) [1] = molecular target: T1, hERG (Kv11.1, KCNH2) (Homo sapiens, UniProt Q12809); test: in vitro
Description: MMV: Malaria Box compounds were tested for inhibition of the human ether a go-go related gene (hERG), Kv11.1 channel, using IonWorks 384-well patch clamp electrophysiology at 1.1uM (3 independent assay plates up to 12 cells per concentration).

hERG (Kv11.1, KCNH2) [2] = molecular target: T1, hERG (Kv11.1, KCNH2); test: in vitro; remark: listed apart in the source
Description: MMV: Malaria Box compounds were tested for inhibition of the human ether a go-go related gene (hERG), Kv11.1 channel, using IonWorks 384-well patch clamp electrophysiology at 11.1uM (3 independent assay plates up to 12 cells per concentration).

T1 sequence (Q12809 whole entry): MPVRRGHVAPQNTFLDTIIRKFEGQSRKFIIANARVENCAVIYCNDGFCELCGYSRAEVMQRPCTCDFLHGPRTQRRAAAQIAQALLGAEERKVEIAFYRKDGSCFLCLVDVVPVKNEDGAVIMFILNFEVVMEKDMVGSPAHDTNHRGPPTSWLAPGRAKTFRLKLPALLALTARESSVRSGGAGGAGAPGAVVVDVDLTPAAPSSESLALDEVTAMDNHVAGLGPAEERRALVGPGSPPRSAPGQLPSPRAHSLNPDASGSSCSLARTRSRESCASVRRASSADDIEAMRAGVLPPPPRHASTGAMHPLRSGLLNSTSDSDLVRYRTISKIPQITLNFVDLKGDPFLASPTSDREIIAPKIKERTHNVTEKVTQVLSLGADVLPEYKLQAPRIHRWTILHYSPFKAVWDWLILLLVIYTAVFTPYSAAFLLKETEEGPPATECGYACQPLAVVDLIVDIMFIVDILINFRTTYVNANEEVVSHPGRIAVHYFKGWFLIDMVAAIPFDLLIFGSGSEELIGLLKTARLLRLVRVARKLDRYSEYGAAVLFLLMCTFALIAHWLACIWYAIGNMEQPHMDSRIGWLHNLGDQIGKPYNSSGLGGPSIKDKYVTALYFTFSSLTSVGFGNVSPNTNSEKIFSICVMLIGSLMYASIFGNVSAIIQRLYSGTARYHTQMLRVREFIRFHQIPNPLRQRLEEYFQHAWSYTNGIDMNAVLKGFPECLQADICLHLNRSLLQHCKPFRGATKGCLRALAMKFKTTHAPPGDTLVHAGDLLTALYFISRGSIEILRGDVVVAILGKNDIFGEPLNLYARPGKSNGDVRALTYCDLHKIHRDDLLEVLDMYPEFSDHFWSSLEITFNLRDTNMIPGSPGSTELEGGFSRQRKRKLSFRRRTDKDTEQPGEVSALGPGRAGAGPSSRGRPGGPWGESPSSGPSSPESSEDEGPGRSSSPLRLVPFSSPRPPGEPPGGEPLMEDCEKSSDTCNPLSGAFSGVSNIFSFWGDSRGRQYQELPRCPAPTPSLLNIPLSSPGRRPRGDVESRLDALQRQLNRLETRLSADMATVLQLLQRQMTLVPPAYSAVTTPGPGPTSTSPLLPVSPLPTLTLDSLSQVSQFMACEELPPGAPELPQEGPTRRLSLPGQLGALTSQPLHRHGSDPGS

SMILES	inhibition at 1.1 µM (hERG (Kv11.1, KCNH2) [1]) [%]	inhibition at 11.1 µM (hERG (Kv11.1, KCNH2) [2])
Oc1ccc(Cl)cc1CNc1nc2ccccc2[nH]1	14	52% (active)
O=C(c1ccccc1F)N(Cc1ccc(Cl)cc1)c1ccccn1	7	22% (inactive)
COCCn1c(C)nc2ccccc2c1=O	3	1% (inactive)
O=C(Nc1cccc(-c2nc3ccccc3[nH]2)c1)c1cccc(NC(=O)c2ccco2)c1	-6	6% (inactive)
O=C(Nc1ccc(CN2CCOCC2)cc1)c1ccc(-c2ccc(Br)cc2)o1	42	98% (active)
COc1ccccc1CNC(=O)CCn1c(=O)[nH]c2ccccc2c1=O	-6	19% (inactive)
OC(Cn1nnc2ccccc21)Cn1c2ccc(Br)cc2c2cc(Br)ccc21 (centres undefined)	21	17% (inactive)
O=C(Nc1ccc(Cl)cc1)N1CCN(c2ccc3nncn3n2)CC1	0	58% (active)
O=C(CSc1ccc2nnc(-c3cccc(F)c3)n2n1)Nc1ccc2c(c1)OCO2	5	3% (inactive)
CCCCNCC(O)(c1ccc(Cl)cc1)c1ccc(Cl)cc1	30	95% (active)
CCCc1cc(O)c2c3c(c(=O)oc2c1)CN(C)CC3	46	94% (active)
CC(C)(C)C(=O)Nc1ccc(C(=O)Nc2cccc(-c3nc4ccccc4[nH]3)c2)cc1	8	40%
COc1ccc(-c2nonc2NC(=O)c2cccc(C)c2)cc1OC	5	-3% (inactive)
OC(CNC1CCCCC1)Cn1c2ccc(I)cc2c2cc(I)ccc21 (centres undefined)	-5	12% (inactive)
O=C(Nc1ccsc1C(=O)NC1CCCCC1)c1ccc(F)cc1	-3	3% (inactive)
O=C(Nc1ccc(Cl)cc1C(=O)Nc1ccncc1)c1ccc(Cl)cc1Cl	4	39%
COc1ccc(N2CCN(C(CNC(=O)CC(C)(C)C)c3ccc4c(c3)OCO4)CC2)cc1 (centres undefined)	-5	24% (inactive)
COc1cccc(C(=O)NC(c2ccc(C)cc2)c2cc(Cl)c3cccnc3c2O)c1 (centres undefined)	4	-6% (inactive)
CCOc1ccc(/C=C/c2nc(=O)c3ccccc3o2)cc1	1	19% (inactive)

SMILES	inhibition at 1.1 µM (hERG (Kv11.1, KCNH2) [1]) [%]	inhibition at 11.1 µM (hERG (Kv11.1, KCNH2) [2])
O=C(Nc1ccccc1O)c1ccc(-c2ccc(Cl)cc2Cl)o1	1	3% (inactive)
O=C(Nc1ccc(F)c(Cl)c1)Nc1ccc(Cl)c(Cl)c1	-11	-3% (inactive)
O=C(Cc1ccccc1)NC(c1ccc(Cl)cc1)c1c(O)ccc2ccccc12 (centres undefined)	-2	-1% (inactive)
Oc1ccc(C(=C(Cl)Cl)c2ccc(O)cc2)cc1	7	15% (inactive)
CCOc1ccc(-c2nc(NC(=O)c3cccc(S(C)(=O)=O)c3)sc2C)cc1	3	29%
COc1ccc(C(=O)NC(c2ccccc2Cl)c2cc(Cl)c3cccnc3c2O)cc1 (centres undefined)	9	7% (inactive)
COc1ccc(CN2CCN(Cc3ccccc3)CC2)c(O)c1	15	66% (active)
CCCCCCc1cc(O)c2c3c(c(=O)oc2c1)CCC(C)C3 (centres undefined)	-5	-7% (inactive)
COc1ccccc1N1CCN(C(CNS(=O)(=O)c2ccc(Cl)cc2)c2cccnc2)CC1 (centres undefined)	4	44%
OC1CCCCC1C1(NC(=S)Nc2ccccc2)CCCCC1 (centres undefined)	26	51% (active)
CCOc1c(Cl)cc(CNC(C)C(O)c2ccccc2)cc1OC (centres undefined)	-4	39%
COc1ccc(C(=O)C2CC2c2ccc(Cl)cc2)cc1 (centres undefined)	-6	13% (inactive)
CCN(CC)CCCNc1nc(-c2ccc(Cl)cc2)nc2ccccc12	8	94% (active)
O=c1c2c([nH]c3ccccc13)CCCC2	4	6% (inactive)
CN1c2ccccc2N(C)C1c1ccc2c(c1)OCO2	-1	17% (inactive)
O=C(NCC1Cc2cccc(-c3ccncc3)c2O1)c1csc2c1CCCC2 (centres undefined)	13	61% (active)
c1ccc(Cn2c(N=Nc3c(Nc4ccccc4)ccc4ccccc34)nc3ccccc32)cc1	-2	-2% (inactive)
Cc1ccc(S(=O)(=O)c2c(COC(=O)c3cccc(C)c3)c(-c3ccccc3)nn2C)cc1	4	12% (inactive)
